The values below come from patent publication US20250352608A1, “POLYPEPTIDES HAVING ANTI-INFLAMMATORY EFFECTS AND USES THEREOF” (OneSkin, Inc., priority 2020, published 2025).

“Also recorded” adds a separate entry of the source. Ends that are not written are not given here.

Data set [1] concerns Human primary fibroblasts isolated from 3 healthy chronologically aged (elder) donors. Briefly: 3-week exposure: senescence and proliferation. Conditions: 3.12 μM, days 7-28. It is filed as cell-based. The method, then:
Human primary fibroblasts isolated from 3 healthy chronologically aged (elder) donors were used. These cells were cultured in DMEM (Dulbecco's Modified Eagle's Medium) supplemented with 10% v.v. fetal bovine serum (FBS), and 1% v.v. of penicillin/streptomycin solution (1,000 U·mL-1). Cells were kept in a 5% CO2, 37° C. and 95% humidity atmosphere. After expansion, these cells were seeded in T-75 flasks (250,000 cells per flask) and, 6 hours after plating, were incubated for 3 weeks (21 days) with Peptide 14 at 3.12 μM. A negative control comprised untreated cells, which received vehicle only. Day 0 was defined as the day cells started to be treated with Peptide 14. No Peptide 14 treatment was performed between days 21 and 28. Weekly, cellular senescence was assessed according to senescence associated β-galactosidase staining levels. Data was normalized to untreated group and plotted (FIG. 4, panel A). Cellular proliferation was also determined weekly. At days 7, 14, 21, and 28, cells were trypsinized and counted (FIG. 4, panel B). After counting, 250,000 cells were plated in new T-75 flasks. Three independent experiments (biological replicates) including three technical replicates were performed. Data was analyzed using T-test. Statistical significance was determined as p values equal or lower than 0.05.

For data set [2], the system named is peripheral blood mononuclear cells (PBMCs). Briefly: PBMC viability / toxicity (MTT). Format: cell-based, human. The following applies: 1.56 μM to 150 μM. The method, then: T cells may be involved in inflammation of various skin disorders. […] This study was approved by an IRB board. PBMCs were obtained from healthy volunteers. After isolation, the PBMCs were maintained in 96 wells and treated with different concentrations of Peptide 14 (1.56 μM to 150 μM) in order to assess toxicity of Peptide 14 to the PBMCs.
The viability and proliferation of PBMCs were analyzed by MTT assay. Briefly, after 5 days of treatment, the cells were incubated with […] MTT reagent for 4 hours. Then, 100 μL of DMSO was added into each well, and the absorbance was detected at 595 nm. Data was presented as percentage of proliferation/viability normalized to the negative control of untreated PBMCs (100% viability/proliferation).

For data set [3], the system named is human primary fibroblasts isolated from 3 healthy donors. Briefly: UVB-induced senescence. Conditions: 5 μM, 48 hours. Format: cell-based. Here is the method:
Cellular senescence may be caused by several different stimuli. In order to assess whether Peptide 14 was effective against UVB-induced and chemically-induced senescence, human primary fibroblasts isolated from 3 healthy donors were used. These cells were cultured in DMEM (Dulbecco's Modified Eagle's Medium) supplemented with 10% v.v. fetal bovine serum (FBS), and 1% v.v. of penicillin/streptomycin solution (1,000 U mL-1). Cells were kept in a 5% CO2, 37° C. and 95% humidity atmosphere. After expansion, these cells were seeded in 96-well plates (4,000 cells per well) and, 6 hours after plating, were submitted to either etoposide (20 μM) treatment for 24 hours, or exposed twice to 0.05 J/cm^2 of UVB radiation. […] After incubation, relative cellular senescence (assessed by the activity of senescence associated β-galactosidase staining relative to untreated control) was analyzed and plotted in column graphs. ATRX foci were also assessed following ATRX immunofluorescence staining. Graphs were built using the average ATRX foci detected per nuclei. […] Data was analyzed using with either t-test or ANOVA followed by a Bonferroni post-hoc test. Statistical significance was determined as p-values equal or lower than 0.05 (FIG. 6).

The subject of another data set is Caenorhabditis elegans. Nature of the data set: C. elegans healthspan and lifespan. Conditions: at the concentrations tested (1 μM, 2 μM). It is filed as in vivo. Here is the method: Senotherapeutic strategies can be linked to healthspan and lifespan extension in vivo. In order to assess whether Peptide 14 promotes extended healthspan and lifespan, Caenorhabditis elegans worms were used. Peptide 14 was added in the worm media (M9 buffer media) at different concentrations of 1 μM or 2 μM. Negative control worms received vehicle only. Two healthspan parameters were assessed i) pharyngeal pumping and ii) worm movement. Lifespan was also determined. For pharyngeal pumping analysis, 15 worms had their pharynx movement (pumping) observed daily and counted for 20 seconds. This experiment was repeated 3 times, by 2 different blind observers, employing different populations of animals at different days. Statistical difference was detected by analyzing each individual time point by One-Way ANOVA and Dunnet's post hoc test. All groups were compared with the H2O group. For worm movement analysis, the basic movement of C. elegans, also called thrashing, was measured daily for 15 worms. […] Statistical difference was detected by analyzing each individual time point by One-Way ANOVA and Dunnet's post hoc, and all groups were compared with the H2O group. […] The average lifespan was measured. Statistical difference was detected by analyzing each individual time point by One-Way ANOVA and Dunnet's post hoc, and all groups were compared with the H2O group (FIG. 15).

The subject of another data set is U-937 macrophages. The following applies: 3.12 μM, absence or presence of 0.5 μg/mL LPS. From the text:
In some cases, monocytes and macrophages may be involved in inflammation of various skin disorders. In order to assess the effect of Peptide 14 on inflammation, an in vitro model of inflammation using monocytes and macrophages was used to study the effect of direct culture of the Peptide 14 with such cells. Cells from the U-937 cell line (Banco de Células do Rio de Janeiro—BCRJ cat. 0242) were used for experiments. According to BCRJ, the U-937 cell line was derived by Sundstrom and Nilsson in 1974 from malignant cells obtained from the pleural effusion of a patient with histiocytic lymphoma. Also, studies since 1979 have shown that U-937 cells can be induced to terminal monocytic differentiation by supernatants from human mixed lymphocyte cultures or phorbol myristic acid (PMA) stimulation.

Data set [4] relates to 3D skin equivalent (elder donors). Nature of the data set: Relative mRNA expression in 3D skin equivalents versus Retinoic Acid. Conditions: 1p M peptide vs 20 μM Retinoic Acid. Format: cell-based, human. Here is the method:
3D skin equivalent sections of samples built with cells from elder donors ([…]) were treated with 1p M Peptide 14 or Peptide 13, or 20 μM Retinoic Acid (RA) and assessed for the effect of the various treatments of various markers of senescence, aging, and health.
Data are presented as 2-ddCt normalized to GAPDH and untreated control. *p<0.05. Peptide 13 and Peptide 14-treated samples generally had similar relative mRNA expression levels for p16, BLIMP1, ZYG11B, IL-8, and Ki-67 in the epidermal layer, and for p16, MMP1, HAS2, IL-8, and Ki-67 in the dermal layer. Peptide 13 and Peptide 14-treated samples generally had lower relative mRNA expression levels than RA-treated samples for p16, BLIMP1, ZYG11B, IL-8, in the epidermal layer and for p16, MMP1, IL-8, and Ki-67 in the dermal layer. Peptide 13 and Peptide 14-treated samples generally had higher relative mRNA expression levels than RA-treated samples for Ki-67 in the epidermal layer and for HAS2 for the dermal layer. Peptide 13 and Peptide 14-treated samples had similar relative mRNA expression levels as RA-treated samples for ZIC1 and Ki-67 for dermal layer.

The next data set concerns fibroblasts. Briefly: SA B-galactosidase staining after UVB (Example 8). Format: cell-based, human. Conditions: 48 hours after 2 x 0.05 J/cm^2. Here is the method: (§1) In order to shed light into the mechanism of action of Peptide 14 and similar Peptide 13, Akt S473 phosphorylation (FIG. 8, panel A), senescence associated β-galactosidase staining (FIG. 8, panel B), as well as mRNA expression (FIG. 8, panel C) were investigated. For Akt S473 phosphorylation analysis using western blotting, human primary fibroblasts and keratinocytes were used. These cells were used to build human skin equivalents, which were kept in a 5% CO2, 37° C. and 95% humidity atmosphere air liquid interface. Then, skin equivalents were treated with 1p M of either Peptide 14 or Peptide 13 for 5 days, and protein analysis was performed on the skin equivalents. Protein was isolated and quantified. Equal amounts of protein were loaded in polyacrylamide gels and transferred into a nitrocellulose membrane. […] Relative pAkt S473/GAPDH signal was compared between treated and non-treated samples. For senescence associated B-galactosidase staining experiments, fibroblasts were used. […] Total RNA was isolated, samples were reverse transcribed, and mRNA expression of GAPDH, sirtuin 6 (SIRT6), BLM, and exonuclease 1 (EXO1) genes were determined using qPCR. […] CT values were analyzed using the 2^−ΔΔCt method. […] Data was analyzed using a T-test. Statistical significance was determined as p values equal or lower than 0.05 (FIG. 8).

Data set [5] deals with human skin equivalents (donors). Nature of the data set: Histology score of human skin equivalents (Example 16). It is filed as cell-based. Conditions: 0.01% w/v (or 1 μM), 5 days; control 21.00. Here is the method:
To test the effect of Peptide 13 and Peptide 14 treatment on human skin models and the skin morphology, human primary fibroblasts and keratinocytes isolated from healthy elder donors were used to build human skin equivalents. The skin equivalents were treated with 0.01% w/v (or 1 μM) of Peptide 13 or Peptide 14 for 5 days. The negative controls were treated with formulation only. After the 5-day culture, the skin equivalents were analyzed for epidermal thickness, which was quantified according to total epidermal area. Quality assessment based several parameters was performed by blind analysts. […] A minimal score of 19 was required for batch use. This score was validated internally and shown to decrease with age/senescence of the skin equivalents or cultured cells. Three independent experiments were performed with three technical replicates. Data were analyzed using a t-test. Statistical significance was determined as p-values equal or lower than 0.05. The statistically significant p-values are noted by * for p<0.05; ** for p<0.01; *** for p<0.001; **** for p<0.0001 between the groups.

In the next data set the test system is pAkt S473. Briefly: Akt S473 phosphorylation western blot in skin equivalents. Format: cell-based, human. The following applies: 1p M, 5 days. Here is the method:
as §1

On to ETAKHWLKGI [Peptide 14, ETAKHWLKGI], for which, in [1], the “cell proliferation vs untreated control” value is reported as “No significant differences”. In addition, in [2], the “cell toxicity to PBMCs” value is reported as “nor any detectable cell toxicity” and the “cell viability vs untreated control PBMCs” value is “did not result in lower cell viabilities”. Further, in [3], the “cell number after UVB” value is “did not significantly alter cell number”. For the same sequence, in the data set on Caenorhabditis elegans, the “toxicity to C. elegans (worm movement)” value is given as “not toxic”. Moreover, in the data set with U-937 macrophages, the “cell toxicity to U-937 macrophages” value is on record as “nor any detectable cell toxicity” and the “cell viability vs untreated control U-937 macrophages” value is “did not result in lower cell viabilities”.

As to ATAKAWLKGI [Peptide 13], in [4], the “relative mRNA BLIMP1, epidermal layer, vs RA-treated samples” value is given as “lower”; the “relative mRNA HAS2, dermal layer, vs RA-treated samples” value is “higher”; the “relative mRNA IL-8, dermal layer, vs RA-treated samples” value is reported as “lower”; the “relative mRNA IL-8, epidermal layer, vs RA-treated samples” value is recorded as “lower”. For the same sequence, in data set [4], the “relative mRNA Ki-67, dermal layer, vs RA-treated samples” value was “lower; also recorded: similar”; the “relative mRNA Ki-67, epidermal layer, vs RA-treated samples” value is reported as “higher”; the “relative mRNA MMP1, dermal layer, vs RA-treated samples” value is given as “lower”; the “relative mRNA ZIC1 vs RA-treated samples” value is “similar”. Moreover, in [4], the “relative mRNA ZYG11B, epidermal layer, vs RA-treated samples” value is on record as “lower”; the “relative mRNA p16, dermal layer, vs RA-treated samples” value is recorded as “lower”; the “relative mRNA p16, epidermal layer, vs RA-treated samples” value is “lower”. Also, the “SA B-galactosidase staining in UVB-exposed samples” value with fibroblasts is listed as “decreased staining”. The “mean of histology scores (maximum 28)” value in data set [5] was found to be 23.44. Also, the “pAkt S473, dermal samples” value in the data set on pAkt S473 is “decreased”.
